Assay results from US20210165001A1, “COMPOSITIONS AND METHODS FOR DETECTION AND IMAGING OF AMYLOID FIBRILS, AMYLOID PLAQUES, RNA, AND NUCLEOLI” (The University of Hong Kong, priority 2018, published 2021).

Columns and labels:
Format in all cases: biochemical
[1] = target: T1, insulin amyloid fibrillation (Homo sapiens, UniProt P01308); experiment: effect of L-ascorbic acid on insulin amyloid fibrillation, thioflavin T fluorescence assay; conditions: detected by thioflavin T
Experimental: (§1) In kinetics, insulin amyloid fibrillation can be modeled by a sigmoid function with three different phases: lag phase, log phase, and stationary phase. The values of kapp and tlag for insulin amyloid fibrillation were determined using the sigmoid function which was based on the equation shown below (see similar examples of data fitting in Nielsen et al., Biochemistry, 40:6036-6046 (2001); Hwang et al., J. Biol. Chem., 285:41701-41711 (2010); and Donabedian et al., ACS Chem. Neurosci., 6:1526-1535 (2015)).
(§2) where y is the absorbance, emission intensity, or RLS intensity; A1 is the absorbance, emission intensity, or RLS intensity before amyloid fibrillation; A2 is the absorbance, emission intensity, or RLS intensity after amyloid fibrillation; x is the incubation time; xo is the incubation time at which the absorbance, emission intensity, or RLS intensity is at half maximum; and dx is the time constant. Accordingly, the apparent rate constant, kapp, is equivalent to 1/dx, and the lag time, tlag, is given by xo−2dx.
(§3) Insulin was dissolved at 1.0 mg mL^−1 in an acidic buffer ([NaCl]=137 mM, [KCl]=2.7 mM, pH=2.0) in the presence of different amounts (0, 10, 20, 50, 70, 100 mM) of L-ascorbic acid. The solution was incubated at 65° C. and stirred at 300 rpm. Aliquots were withdrawn at a desired time interval. Insulin samples (10 μM) with different incubation times were added to a solution of thioflavin T (10 μM) in a PBS buffer (10.0 mM, pH=7.4). The emission spectra were recorded at 25° C. at an excitation wavelength of 440 nm. Similarly, insulin samples (10 μM) with different incubation times were added to a solution of complex 1-Pt (50 μM) in a PBS buffer (10.0 mM, pH=7.4, 10% DMSO). The emission spectra were recorded at 25° C. at an excitation wavelength of 400 nm. The values of kapp and tlag for insulin amyloid fibrillation were determined from fitting using the sigmoid equation listed above.

[2] = target: T1, insulin amyloid fibrillation; experiment: effect of L-ascorbic acid on insulin amyloid fibrillation, complex 1-Pt luminescence assay; conditions: for kapp of insulin amyloid fibrillation / tlag of insulin amyloid fibrillation: detected by complex 1-Pt
Experimental: as §1, §2, §3

[3] = target: T1, insulin amyloid fibrillation; experiment: kinetics of insulin amyloid fibrillation reported by probe (sigmoid fit); conditions: method: Emission; insulin 10 μM; thioflavin T 10 μM (490 nm) or complex 1-Pt 50 μM (650 nm); no L-ascorbic acid
Experimental: To induce amyloid fibrillation, insulin was dissolved at 1.0 mg mL^−1 in an acidic buffer ([NaCl]=137 mM, [KCl]=2.7 mM, pH=2.0). The solution was incubated at 65° C. and stirred at 300 rpm. Insulin samples with different incubation times were added to a solution of thioflavin T in a PBS buffer (10.0 mM, pH=7.4). The final concentrations of insulin and thioflavin T were both 10 μM. The emission spectra were recorded at 25° C. at an excitation wavelength of 440 nm. Similarly, insulin samples with different incubation times were added to a solution of complex 1-Pt in a PBS buffer (10.0 mM, pH=7.4, 10% DMSO). The final concentrations of insulin and complex 1-Pt were 10 μM and 50 μM, respectively. UV-Vis absorption spectra, emission spectra, and RLS spectra were recorded at 25° C.; the emission spectra were recorded at an excitation wavelength of 400 nm.
as §1, with “(2015)). […]” for “(2015)).”

T1 sequence (P01308 25-54 limits assumed): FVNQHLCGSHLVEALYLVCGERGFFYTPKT
T1 sequence (P01308 90-110 limits assumed): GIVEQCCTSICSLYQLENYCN

SMILES	kapp of insulin amyloid fibrillation ([1]; L-ascorbic acid 10 mM) [min⁻¹]	tlag of insulin amyloid fibrillation ([1]; L-ascorbic acid 10 mM) [min]	kapp of insulin amyloid fibrillation ([1]; L-ascorbic acid 20 mM) [min⁻¹]	tlag of insulin amyloid fibrillation ([1]; L-ascorbic acid 20 mM) [min]	kapp of insulin amyloid fibrillation ([1]; L-ascorbic acid 50 mM) [min⁻¹]	tlag of insulin amyloid fibrillation ([1]; L-ascorbic acid 50 mM) [min]	kapp of insulin amyloid fibrillation ([1]; L-ascorbic acid 70 mM) [min⁻¹]	tlag of insulin amyloid fibrillation ([1]; L-ascorbic acid 70 mM) [min]	inhibition effect on amyloid fibrillation ([2]; L-ascorbic acid 0-100 mM, thioflavin T and complex 1-Pt assays)	kapp of insulin amyloid fibrillation ([2]; L-ascorbic acid 10 mM) [min⁻¹]	tlag of insulin amyloid fibrillation ([2]; L-ascorbic acid 10 mM) [min]	kapp of insulin amyloid fibrillation ([2]; L-ascorbic acid 20 mM) [min⁻¹]	tlag of insulin amyloid fibrillation ([2]; L-ascorbic acid 20 mM) [min]	kapp of insulin amyloid fibrillation ([2]; L-ascorbic acid 50 mM) [min⁻¹]	tlag of insulin amyloid fibrillation ([2]; L-ascorbic acid 50 mM) [min]	kapp of insulin amyloid fibrillation ([2]; L-ascorbic acid 70 mM) [min⁻¹]	tlag of insulin amyloid fibrillation ([2]; L-ascorbic acid 70 mM) [min]	kapp (apparent rate constant of insulin amyloid fibrillation) [3] [min⁻¹]	tlag (lag time of insulin amyloid fibrillation) [3] [min]
O=C1O[C@H]([C@@H](O)CO)C(O)=C1O [L-ascorbic acid]	0.19 ± 0.09	54.3 ± 0.2	0.17 ± 0.08	57.2 ± 0.3	0.17 ± 0.08	68.3 ± 0.3	0.14 ± 0.07	83.0 ± 0.3	concentration dependent	0.18 ± 0.09	53.2 ± 0.2	0.16 ± 0.08	59.2 ± 0.3	0.15 ± 0.07	70.1 ± 0.6	0.12 ± 0.06	85.6 ± 0.6	–	–
Cc1ccc2c(c1)sc(-c1ccc(N(C)C)cc1)[n+]2C.[Cl-] [Thioflavin T, thioflavin T]	–	–	–	–	–	–	–	–	–	–	–	–	–	–	–	–	–	0.23 ± 0.08	54.0 ± 0.1
